What was measured:
Assay in all cases: biochemical
Set-up in all cases: Eurofins KinaseProfiler panel of 60 kinases, per cent inhibition
Aurora-B(h) = target: T1, Aurora-B(h) (Homo sapiens, UniProt Q96GD4)
T1 construct: gene AURKB
Excerpt: (§1) A more detailed account of the discovery, chemistry and biochemical properties of this novel class of selective p38δ inhibitors will be given elsewhere.

CDK9/cyclin T1(h) = CDK9/cyclin T1(h) (Homo sapiens, UniProt P50750)
Excerpt: as §1

CLK2(h) = CLK2(h) (Homo sapiens, UniProt P49760)
Excerpt: as §1

DDR2(h) = DDR2(h) (Homo sapiens, UniProt Q16832)
Excerpt: as §1

EphA3(h) = EphA3(h) (Homo sapiens, UniProt P29320)
Chain of EphA3(h) (P29320 whole entry): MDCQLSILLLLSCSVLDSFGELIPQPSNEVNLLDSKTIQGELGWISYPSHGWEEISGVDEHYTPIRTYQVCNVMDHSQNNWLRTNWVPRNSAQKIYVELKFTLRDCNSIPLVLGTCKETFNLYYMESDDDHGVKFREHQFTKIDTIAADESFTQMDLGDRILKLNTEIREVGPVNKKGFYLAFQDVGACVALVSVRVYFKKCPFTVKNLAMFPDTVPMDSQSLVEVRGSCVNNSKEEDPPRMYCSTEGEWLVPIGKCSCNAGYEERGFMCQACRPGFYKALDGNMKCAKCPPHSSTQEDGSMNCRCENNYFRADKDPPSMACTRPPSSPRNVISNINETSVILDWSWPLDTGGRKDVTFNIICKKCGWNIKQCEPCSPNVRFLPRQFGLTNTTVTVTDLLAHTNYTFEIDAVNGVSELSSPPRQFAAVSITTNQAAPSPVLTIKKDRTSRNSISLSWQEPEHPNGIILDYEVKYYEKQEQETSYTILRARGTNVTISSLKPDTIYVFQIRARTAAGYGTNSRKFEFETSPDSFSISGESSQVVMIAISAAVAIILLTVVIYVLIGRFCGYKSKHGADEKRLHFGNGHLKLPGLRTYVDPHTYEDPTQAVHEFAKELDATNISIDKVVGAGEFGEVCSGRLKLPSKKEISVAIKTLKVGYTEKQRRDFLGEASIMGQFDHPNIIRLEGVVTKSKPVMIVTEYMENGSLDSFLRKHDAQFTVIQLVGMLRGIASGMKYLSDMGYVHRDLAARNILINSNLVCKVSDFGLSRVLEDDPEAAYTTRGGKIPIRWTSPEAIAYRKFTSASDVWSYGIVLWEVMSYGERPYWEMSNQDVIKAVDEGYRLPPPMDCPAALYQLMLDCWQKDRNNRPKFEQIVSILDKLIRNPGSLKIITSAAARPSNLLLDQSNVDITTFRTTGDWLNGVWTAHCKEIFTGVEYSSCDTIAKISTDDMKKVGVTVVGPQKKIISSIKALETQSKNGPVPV
Excerpt: as §1

EphB1(h) = EphB1(h) (Homo sapiens, UniProt P54762)
Chain of EphB1(h) (P54762 whole entry): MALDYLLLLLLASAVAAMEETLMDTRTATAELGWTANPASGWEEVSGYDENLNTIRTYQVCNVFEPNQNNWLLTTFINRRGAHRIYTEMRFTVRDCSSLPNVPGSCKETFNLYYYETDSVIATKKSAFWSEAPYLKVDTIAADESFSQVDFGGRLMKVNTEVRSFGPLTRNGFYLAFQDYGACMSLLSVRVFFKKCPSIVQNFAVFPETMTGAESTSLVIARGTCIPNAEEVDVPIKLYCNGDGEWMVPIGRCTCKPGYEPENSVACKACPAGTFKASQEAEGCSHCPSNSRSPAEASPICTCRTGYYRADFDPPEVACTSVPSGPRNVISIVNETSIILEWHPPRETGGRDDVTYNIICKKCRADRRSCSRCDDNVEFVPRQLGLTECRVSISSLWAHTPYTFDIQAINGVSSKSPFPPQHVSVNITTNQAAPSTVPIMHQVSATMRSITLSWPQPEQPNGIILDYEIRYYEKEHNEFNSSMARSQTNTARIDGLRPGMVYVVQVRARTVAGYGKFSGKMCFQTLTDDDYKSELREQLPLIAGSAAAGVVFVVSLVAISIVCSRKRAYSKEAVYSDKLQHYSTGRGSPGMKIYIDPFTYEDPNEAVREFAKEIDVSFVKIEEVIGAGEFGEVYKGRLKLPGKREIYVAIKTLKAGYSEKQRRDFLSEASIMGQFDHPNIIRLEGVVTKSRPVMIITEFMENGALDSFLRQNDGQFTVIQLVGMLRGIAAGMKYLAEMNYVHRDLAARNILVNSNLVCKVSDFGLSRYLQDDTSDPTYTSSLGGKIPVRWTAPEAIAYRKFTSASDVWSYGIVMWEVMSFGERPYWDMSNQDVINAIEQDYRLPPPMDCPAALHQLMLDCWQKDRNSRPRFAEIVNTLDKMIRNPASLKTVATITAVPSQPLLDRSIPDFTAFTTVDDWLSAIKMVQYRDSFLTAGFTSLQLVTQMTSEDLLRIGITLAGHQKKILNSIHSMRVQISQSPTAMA
Excerpt: as §1

FGFR1(h) = FGFR1(h) (Homo sapiens, UniProt P11362)
Excerpt: as §1

Flt1(h) = Flt1(h) (Homo sapiens, UniProt P17948)
Excerpt: as §1

IR(h) = target: T2, IR(h) (Homo sapiens, UniProt P06213)
T2 construct: gene INSR
Excerpt: as §1

KDR(h) = KDR(h) (Homo sapiens, UniProt P35968)
Excerpt: as §1

LRRK2(h) = LRRK2(h) (Homo sapiens, UniProt Q5S007)
Excerpt: as §1

Lck(h) activated = Lck(h) activated (Homo sapiens, UniProt P06239)
Excerpt: as §1

MAPK1(h) = target: T3, MAPK1(h) (Homo sapiens, UniProt P27361)
T3 construct: gene MAPK3
Excerpt: as §1

PDGFRα(h) = target: T4, PDGFRα(h) (Homo sapiens, UniProt P16234)
T4 construct: gene PDGFRA
Excerpt: as §1

[1] = target: T5, PI3 Kinase (p110α/p85α)(h) (Homo sapiens, UniProt P42336)
T5 construct: gene PIK3CA; p110α/p85α
Excerpt: as §1

PKA(h) = target: T6, PKA(h) (Homo sapiens, UniProt P17612)
T6 construct: gene PRKACA
Excerpt: as §1

PKBα(h) = target: T7, PKBα(h) (Homo sapiens, UniProt P31749)
T7 construct: gene AKT1
Excerpt: as §1

PKCε(h) = target: T8, PKCε(h) (Homo sapiens, UniProt Q02156)
T8 construct: gene PRKCE
T8 sequence (Q02156 whole entry): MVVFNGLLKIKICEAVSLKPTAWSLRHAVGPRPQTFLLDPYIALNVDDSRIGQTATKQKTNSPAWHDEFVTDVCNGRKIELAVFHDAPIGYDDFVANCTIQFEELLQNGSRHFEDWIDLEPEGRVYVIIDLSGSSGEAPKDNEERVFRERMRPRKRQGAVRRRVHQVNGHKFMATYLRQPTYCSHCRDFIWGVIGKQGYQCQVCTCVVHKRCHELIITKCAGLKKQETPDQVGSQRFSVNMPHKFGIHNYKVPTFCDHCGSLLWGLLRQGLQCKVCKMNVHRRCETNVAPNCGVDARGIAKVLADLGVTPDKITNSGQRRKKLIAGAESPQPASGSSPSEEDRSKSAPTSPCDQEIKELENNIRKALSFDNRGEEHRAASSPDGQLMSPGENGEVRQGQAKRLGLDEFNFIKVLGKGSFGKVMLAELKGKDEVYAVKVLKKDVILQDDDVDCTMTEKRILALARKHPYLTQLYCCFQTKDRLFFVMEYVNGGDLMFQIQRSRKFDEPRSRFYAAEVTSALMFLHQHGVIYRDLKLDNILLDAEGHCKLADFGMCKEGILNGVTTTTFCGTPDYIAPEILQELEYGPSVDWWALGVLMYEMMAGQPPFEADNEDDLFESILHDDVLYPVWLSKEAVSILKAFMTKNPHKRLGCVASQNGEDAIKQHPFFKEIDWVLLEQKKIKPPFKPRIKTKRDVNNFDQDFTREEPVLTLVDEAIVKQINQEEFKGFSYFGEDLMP
Excerpt: as §1

PKCθ(h) = target: T9, PKCθ(h) (Homo sapiens, UniProt Q04759)
T9 construct: gene PRKCQ
T9 sequence (Q04759 whole entry): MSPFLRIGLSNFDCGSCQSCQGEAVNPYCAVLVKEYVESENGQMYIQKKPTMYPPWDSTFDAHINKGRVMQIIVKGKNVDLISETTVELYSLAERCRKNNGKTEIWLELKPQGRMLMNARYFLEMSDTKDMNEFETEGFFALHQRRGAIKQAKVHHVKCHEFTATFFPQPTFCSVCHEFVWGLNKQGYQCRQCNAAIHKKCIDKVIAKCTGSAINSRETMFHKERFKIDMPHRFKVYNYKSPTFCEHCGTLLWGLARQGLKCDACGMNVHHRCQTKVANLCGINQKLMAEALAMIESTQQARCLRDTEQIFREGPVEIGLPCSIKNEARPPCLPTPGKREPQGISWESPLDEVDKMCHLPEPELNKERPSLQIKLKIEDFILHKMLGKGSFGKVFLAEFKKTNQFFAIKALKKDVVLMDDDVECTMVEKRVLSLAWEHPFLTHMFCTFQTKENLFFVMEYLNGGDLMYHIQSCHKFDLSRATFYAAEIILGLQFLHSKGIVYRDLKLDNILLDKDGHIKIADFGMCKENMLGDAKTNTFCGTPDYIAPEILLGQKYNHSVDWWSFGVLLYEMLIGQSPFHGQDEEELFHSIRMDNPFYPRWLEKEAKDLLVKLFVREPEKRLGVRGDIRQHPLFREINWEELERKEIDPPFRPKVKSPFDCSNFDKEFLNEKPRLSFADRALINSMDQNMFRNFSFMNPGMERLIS
Excerpt: as §1

Plk1(h) = Plk1(h) (Homo sapiens, UniProt P53350)
Chain of Plk1(h) (P53350 whole entry): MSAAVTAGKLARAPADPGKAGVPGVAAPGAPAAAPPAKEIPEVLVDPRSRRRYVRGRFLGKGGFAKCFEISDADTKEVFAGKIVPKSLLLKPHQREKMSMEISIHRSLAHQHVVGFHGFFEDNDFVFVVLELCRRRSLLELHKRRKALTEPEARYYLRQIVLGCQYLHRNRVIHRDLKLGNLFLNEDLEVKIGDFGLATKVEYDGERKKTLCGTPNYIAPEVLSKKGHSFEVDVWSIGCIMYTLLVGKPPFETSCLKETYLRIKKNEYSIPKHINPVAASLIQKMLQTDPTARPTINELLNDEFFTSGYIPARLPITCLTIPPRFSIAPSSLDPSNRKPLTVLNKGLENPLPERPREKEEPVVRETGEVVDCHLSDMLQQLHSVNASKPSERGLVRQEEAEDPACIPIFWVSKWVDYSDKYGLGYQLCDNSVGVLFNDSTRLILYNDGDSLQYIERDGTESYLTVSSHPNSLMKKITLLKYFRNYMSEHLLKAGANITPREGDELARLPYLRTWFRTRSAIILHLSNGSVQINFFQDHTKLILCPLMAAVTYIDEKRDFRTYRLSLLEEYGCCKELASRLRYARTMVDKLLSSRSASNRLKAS
Excerpt: as §1

SAPK2a(h) = target: T10, SAPK2a(h) (Homo sapiens, UniProt Q16539)
T10 construct: gene MAPK14
Excerpt: as §1

TrkA(h) = target: T11, TrkA(h) (Homo sapiens, UniProt P04629)
T11 construct: gene NTRK1
Excerpt: as §1

cKit(h) = target: T12, cKit(h) (Homo sapiens, UniProt P10721)
T12 construct: gene KIT
T12 sequence (P10721 whole entry): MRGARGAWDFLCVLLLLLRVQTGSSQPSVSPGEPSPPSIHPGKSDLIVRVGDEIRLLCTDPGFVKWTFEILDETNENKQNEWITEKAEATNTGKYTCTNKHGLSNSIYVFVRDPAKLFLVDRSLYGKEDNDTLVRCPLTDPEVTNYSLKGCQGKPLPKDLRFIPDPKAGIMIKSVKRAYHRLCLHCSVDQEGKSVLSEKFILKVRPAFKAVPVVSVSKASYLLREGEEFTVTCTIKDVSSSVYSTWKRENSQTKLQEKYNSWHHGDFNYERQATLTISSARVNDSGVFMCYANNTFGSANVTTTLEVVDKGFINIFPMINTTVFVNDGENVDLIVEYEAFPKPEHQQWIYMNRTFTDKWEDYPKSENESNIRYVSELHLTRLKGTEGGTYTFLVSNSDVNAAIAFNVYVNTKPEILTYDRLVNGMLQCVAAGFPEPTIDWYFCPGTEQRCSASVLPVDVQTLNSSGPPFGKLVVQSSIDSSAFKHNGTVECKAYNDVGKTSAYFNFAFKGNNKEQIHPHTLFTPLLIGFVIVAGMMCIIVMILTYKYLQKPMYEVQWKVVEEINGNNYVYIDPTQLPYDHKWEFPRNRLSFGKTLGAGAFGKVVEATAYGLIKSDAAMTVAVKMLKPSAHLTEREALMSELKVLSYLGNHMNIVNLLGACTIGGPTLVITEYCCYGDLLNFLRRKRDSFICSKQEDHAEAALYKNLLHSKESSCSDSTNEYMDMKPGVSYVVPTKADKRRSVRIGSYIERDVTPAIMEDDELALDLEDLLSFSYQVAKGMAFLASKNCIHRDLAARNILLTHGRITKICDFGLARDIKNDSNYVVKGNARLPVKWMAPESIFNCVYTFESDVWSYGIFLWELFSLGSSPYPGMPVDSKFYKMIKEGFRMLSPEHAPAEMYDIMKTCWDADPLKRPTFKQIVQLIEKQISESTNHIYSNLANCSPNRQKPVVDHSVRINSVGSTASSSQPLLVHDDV
Excerpt: as §1

p70S6K(h) = target: T13, p70S6K(h) (Homo sapiens, UniProt P23443)
T13 construct: gene RPS6KB1
Excerpt: as §1

CCN1CCOc2nc(N3CCOCC3)nc(-c3ccc(NC(=O)OC)cc3)c2C1=O [Compound A]
inhibition at 1 µM (Aurora-B(h)): -24%
inhibition at 10 µM (Aurora-B(h)): -28%
inhibition at 1 µM (CDK9/cyclin T1(h)): -16%
inhibition at 10 µM (CDK9/cyclin T1(h)): 3%
inhibition at 1 µM (CLK2(h)): -2%
inhibition at 10 µM (CLK2(h)): -2%
inhibition at 1 µM (DDR2(h)): 6%
inhibition at 10 µM (DDR2(h)): 15%
inhibition at 1 µM (EphA3(h)): 8%
inhibition at 10 µM (EphA3(h)): 12%
inhibition at 1 µM (EphB1(h)): 6%
inhibition at 10 µM (EphB1(h)): 10%
inhibition at 1 µM (FGFR1(h)): 9%
inhibition at 10 µM (FGFR1(h)): 6%
inhibition at 1 µM (Flt1(h)): -30%
inhibition at 10 µM (Flt1(h)): -28%
inhibition at 1 µM (IR(h)): -21%
inhibition at 10 µM (IR(h)): -14%
inhibition at 1 µM (KDR(h)): -16%
inhibition at 10 µM (KDR(h)): -12%
inhibition at 1 µM (LRRK2(h)): -18%
inhibition at 10 µM (LRRK2(h)): -11%
inhibition at 1 µM (Lck(h) activated): -7%
inhibition at 10 µM (Lck(h) activated): 13%
inhibition at 1 µM (MAPK1(h)): 0%
inhibition at 10 µM (MAPK1(h)): 5%
inhibition at 1 µM (PDGFRα(h)): 1%
inhibition at 10 µM (PDGFRα(h)): 0%
inhibition at 1 µM [1]: -1%
inhibition at 10 µM [1]: 2%
inhibition at 1 µM (PKA(h)): -8%
inhibition at 10 µM (PKA(h)): -22%
inhibition at 1 µM (PKBα(h)): 14%
inhibition at 10 µM (PKBα(h)): 17%
inhibition at 1 µM (PKCε(h)): 8%
inhibition at 10 µM (PKCε(h)): 12%
inhibition at 1 µM (PKCθ(h)): 7%
inhibition at 10 µM (PKCθ(h)): 7%
inhibition at 1 µM (Plk1(h)): 2%
inhibition at 10 µM (Plk1(h)): 11%
inhibition at 1 µM (SAPK2a(h)): -16%
inhibition at 10 µM (SAPK2a(h)): 9%
inhibition at 1 µM (TrkA(h)): -21%
inhibition at 10 µM (TrkA(h)): 5%
inhibition at 1 µM (cKit(h)): 4%
inhibition at 10 µM (cKit(h)): 6%
inhibition at 1 µM (p70S6K(h)): 15%

Reference: PMC6658524, “Lysosomal degradation of newly formed insulin granules contributes to β cell failure in diabetes” (Nature Communications, 2019)
